Earlier results as cited in US8404246B2, “Nutritional supplement to improve supplementary target protein fraction (TPF) delivery, intracellular absorption and utilization” (priority 2010, dated 2013).
Where two headings read alike, the source gives them in different places.

Assays:
[1] = exogenous form

CC(=O)N[C@H]1C(O)O[C@H](CO)[C@@H](O)[C@@H]1O (stereo partly drawn) [N-acetyl D-glucosamine, N-Acetyl D-Glucosamine]
solubility in water [1]: readily soluble

Cl.N[C@H]1C(O)O[C@H](CO)[C@@H](O)[C@@H]1O (stereo partly drawn) [glucosamine HCl]
ingested glycoprotein detectable in serum after dosing (in vivo): 6%

glucosamine NaCl
ingested glycoprotein detectable in serum after dosing (one recent study): 9%
